{"source": "patent US8383406B2", "about": "“Method for stimulating the proliferation of differentiated cells belonging to the chondrogenic lineage” (Maco Parma, priority 2007, dated 2013)", "key": {"[1]": {"system": "human osteoarthritic chondrocytes", "test": "Culturing of chondrocytes with or without glycylglycine, cell counting", "assay_type": "cell-based", "experimental": "The articular cartilage was sampled under sterile conditions from an osteoarthritic patient. The chondrocytes were isolated according to the methods of Green (1971) and Kuettner et al (1982), by enzymatic dissociation of the cartilage in Dulbecco's DMEM medium supplemented with a mixture of antibiotics and antimycotics (10 U/ml penicillin, 10 mg/ml streptomycin, 0.025 mg/ml amphotericin B), 2 mM L-glutamine and 10% foetal calf serum. The cartilage was cut up into small fragments and incubated (37° C.; 20 min) in the aforegoing DMEM medium containing 1 mg/ml of sheep testicular hyaluronidase. The fragments were next washed in PBS buffer (Phosphate Saline Buffer) with a pH of 7.4, and then incubated (60 min, at 37° C.) in the same buffer containing 0.25 g/100 mL trypsin. The fragments of cartilage previously washed with the PBS buffer with a pH of 7.4 were finally dissociated via incubation (15 hrs at 37° C.) in the DMEM medium containing 0.2% collagenase of Clostridium histolyticum and 10% foetal calf serum. The cells were collected by centrifugation (15 min, 3000 g), washed 2 times with the complete DMEM medium and cultured under the conditions hereinbelow. The chondrocytes were cultured on uncoated culture plates with polystyrene wells, at 37° C. for 1 to 7 days in a CO2 atmosphere (5%), in the absence or presence of 20 mM of glycylglycine, in a DMEM medium containing 10% foetal calf serum supplemented with a mixture of antibiotics and antimyotics (10 U/ml penicillin, 10 mg/ml streptomycin, 0.025 mg/ml amphotericin B) and 2 mM L-glutamine. With a view to subsequent cytometric analyses, the chondrocytes were detached by incubating for 3 minutes in a pH 7.4 PBS buffer solution of trypsin (0.25 g/100 ml) and EDTA (0.2 g/100 ml) kept at 37° C. After 3 washings with PBS buffer at pH 7.4, and after counting the cells using a Malassez chamber, the chondrocytes were subjected to various flow cytometry analyses described hereinbelow. FIGS. 1A and 1B show this large-scale production of the chondrocytes. […]"}, "[2]": {"system": "human osteoarthritic chondrocytes", "test": "Cell proliferation test, PKH-26 flow cytometry", "assay_type": "cell-based", "conditions": "20 mM glycylglycine; cultured for 3 days; FIG. 2 curve C vs B", "experimental": "(§1) The analyses were carried out using an FACScan cytometer equipped with ProCellQuest software, under the following experimental conditions: cells in suspension in a PBS isotonic buffer at pH 7.4, having an osmolality of 320-330 mOsmol/kg, with the number of cells analysed being 10,000.\nPrinciple—Prior to being cultured, the chondrocytes were irreversibly labelled with a vital fluorescent membrane intercalator derived from arcidine orange, the PKH-26, with a view to following cell proliferation via flow cytometry, which entails a decrease in the overall fluorescence of the cells.\nOperating procedure—10^6 chondrocytes in suspension in 1 ml of the “diluent C” of the labelling kit are added to 1 ml of a […] solution of PKH-26 in the same diluent. After 4 min of incubation at ambient temperature, the reaction is stopped by the addition of 2 ml of foetal calf serum and then, after incubating for one minute, 4 ml of complete DMEM medium are added. After centrifuging (5 min, 2000 g at 25° C.), the resulting sediment is washed 3 times with 10 ml of complete DMEM medium. The cells are then cultured for 3 days under the conditions described in example 1.2, detached from the support thereof according to the above-described method, placed back in suspension in a PBS buffer at pH 7.4 and analyzed by flow cytometry in the logarithmic mode FL2."}, "chondrocytes": {"system": "chondrocytes", "test": "Proliferation rate of the cells, glycylglycine concentration kinetics", "assay_type": "cell-based, human", "conditions": "for Number of cells obtained / Proliferation rate after 3 days: 76,000 cells cultured for three days; for Proliferation rate/culture medium without Gly-Gly: three days", "experimental": "The chondrocytes were cultured on uncoated culture plates with polystyrene wells, at 37° C. for 1 to 7 days in a CO2 atmosphere (5%), in the absence or presence of 20 mM of glycylglycine, in a DMEM medium containing 10% foetal calf serum supplemented with a mixture of antibiotics and antimyotics (10 U/ml penicillin, 10 mg/ml streptomycin, 0.025 mg/ml amphotericin B) and 2 mM L-glutamine. With a view to subsequent cytometric analyses, the chondrocytes were detached by incubating for 3 minutes in a pH 7.4 PBS buffer solution of trypsin (0.25 g/100 ml) and EDTA (0.2 g/100 ml) kept at 37° C. After 3 washings with PBS buffer at pH 7.4, and after counting the cells using a Malassez chamber, the chondrocytes were subjected to various flow cytometry analyses described hereinbelow. The table below compiles the proliferation rates of cells cultured in the absence or presence of various concentrations of glycylglycine. In order to carry out this test, 76,000 cells were cultured for three days under the culture conditions presented below."}, "[3]": {"system": "human osteoarthritic chondrocytes", "test": "Calcein-AM test, viability and cytotoxicity of the cells", "assay_type": "cell-based", "conditions": "20 mM glycylglycine; cultured for 7 days; FIG. 3 curve C vs B", "experimental": "as §1\nThe viability of the chondrocytes and the toxicity of the peptide were studied using the method developed by Bratosin et al (2005) and based on measuring the cellular esterase activity by means of calcein-AM.\nPrinciple—Calcein-AM is a non-fluorescent acetic ester of fluorescein which passively passes through the membranes of the viable cells and is transformed by the cytosolic esterases into fluorescent calcein, which provides an intense green signal at 530 nm and which is retained only by the cells having an intact plasma membrane. […]\nOperating procedure—The chondrocytes (4×10^5) in suspension in 200 μl of PBS buffer at pH 7.4 are incubated (45 min at 37° C.) in darkness, in the presence of 5 μM calcein-AM. Next, 0.5 ml of PBS buffer at pH 7.4 is added to the suspension, which is immediately analysed by flow cytometry in the FL1 logarithmic mode (number of cells counted: 10,000).\nThe intensity of the fluorescence on a logarithmic scale is plotted on the x-axis and the relative number of cells is plotted on the y-axis."}, "hybridoma cells": {"system": "hybridoma cells", "conditions": "added to the culture medium; WO 01/46220; cited from earlier work"}}, "note": "Where a SMILES comes first, the peptide text is derived from it."}
{"compound": "NCC(=O)NCC(=O)O", "note": "[glycylglycine] (H-Gly-Gly-OH)", "values": [{"measurement": "proliferation rate in comparison with identical culture medium not supplemented with glycylglycine", "setting": "[1]; 20 mM glycylglycine, DMEM medium, 7 days (FIGS. 1A and 1B), cell counting", "result": "multiplied by three"}, {"measurement": "proliferation rate in comparison with non-supplemented culture medium (summary statement)", "setting": "[1]; glycylglycine added to the chondrocyte culture medium", "result": "multiplied by three, and even by seven"}, {"measurement": "dedifferentiation of the chondrocytes into fibroblasts", "setting": "[1]; presence of glycylglycine in culture medium", "result": "blocks the dedifferentiation of the chondrocytes into fibroblasts"}, {"measurement": "PKH-26 fluorescence / cell divisions compared with DMEM medium without glycylglycine", "setting": "[2]", "result": "the cell divisions were more numerous"}, {"measurement": "Number of cells obtained", "setting": "chondrocytes; 20 mM Gly-Gly", "result": "190,000 cells/ml"}, {"measurement": "Proliferation rate after 3 days", "setting": "chondrocytes; 20 mM Gly-Gly", "result": 150, "unit": "%"}, {"measurement": "Proliferation rate/culture medium without Gly-Gly", "setting": "chondrocytes; 20 mM Gly-Gly", "result": 2.11}, {"measurement": "Number of cells obtained", "setting": "chondrocytes; 50 mM Gly-Gly", "result": "124,000 cells/ml"}, {"measurement": "Proliferation rate after 3 days", "setting": "chondrocytes; 50 mM Gly-Gly", "result": 63, "unit": "%"}, {"measurement": "Proliferation rate/culture medium without Gly-Gly", "setting": "chondrocytes; 50 mM Gly-Gly", "result": 1.38}, {"measurement": "Number of cells obtained", "setting": "chondrocytes; 100 mM Gly-Gly", "result": "145,000 cells/ml"}, {"measurement": "Proliferation rate after 3 days", "setting": "chondrocytes; 100 mM Gly-Gly", "result": 91, "unit": "%"}, {"measurement": "Proliferation rate/culture medium without Gly-Gly", "setting": "chondrocytes; 100 mM Gly-Gly", "result": 1.61}, {"measurement": "Number of cells obtained", "setting": "chondrocytes; 200 mM Gly-Gly", "result": "130,000 cells/ml"}, {"measurement": "Proliferation rate after 3 days", "setting": "chondrocytes; 200 mM Gly-Gly", "result": 71, "unit": "%"}, {"measurement": "Proliferation rate/culture medium without Gly-Gly", "setting": "chondrocytes; 200 mM Gly-Gly", "result": 1.44}, {"measurement": "Number of cells obtained", "setting": "chondrocytes; 500 mM Gly-Gly", "result": "112,000 cells/ml"}, {"measurement": "Proliferation rate after 3 days", "setting": "chondrocytes; 500 mM Gly-Gly", "result": 47, "unit": "%"}, {"measurement": "Proliferation rate/culture medium without Gly-Gly", "setting": "chondrocytes; 500 mM Gly-Gly", "result": 1.24}, {"measurement": "toxicity to / viability of the chondrocytes (calcein-AM)", "setting": "[3]", "result": "not toxic to the chondrocytes and does not reduce the viability thereof"}, {"measurement": "proliferation of hybridoma cells in comparison with non-supplemented culture medium", "setting": "hybridoma cells", "result": "only very slightly increases"}]}
{"compound": "NCC(=O)O", "note": "[glycine monomer, glycine, reference compound]", "values": [{"measurement": "proliferation of hybridoma cells in comparison with non-supplemented culture medium", "setting": "hybridoma cells", "result": "only very slightly increases"}]}
